This assay has as its system women with a history of mild or sever dysmenorrhea. Nature of the assay: Clinical study of tampon with CBD (randomized, controlled, crossover, two menstrual cycles; questionnaire and diary data). As to conditions: tests performed by the inventors; cannabidiol provided on the tampon. The class given is in vivo. The procedure:
The following study was performed to assess the safety and efficacy of a tampon covered with CBD oil.
Patients and Samples. A total of 130 women aged between 18 and 42 with a history of mild or sever dysmenorrhea were recruited for this study.
Study design. […] Patients were divided into two groups. One group used a hemp, CBD-infused tampon. The tampon contained […] of CBD oil. The tampon consisted of highly absorbent organic hemp fibers and organic hemp overwrap, organic cotton stitching thread and organic cotton removal cord, and a layer of CBD oil sprayed on top of the hemp overwrap. A second group used a standard off-the-shelf tampon product as a control. The off-the-shelf tampon consisted of blended rayon and viscose fibers with a non-woven rayon overwrap, cotton stitching thread and removal cord.
In a first visit, a patient underwent a gynecological exam and had blood drawn to test for STIs. If the patient fit inclusion criteria, in a second visit, the patient was divided into an experimental group or control group. A control test for levels of CBD in the bloodstream was performed on all participants and the results recorded. All participants were given diaries and instructed to write a detailed account of the comfort of tampon insertion and removal, comfort of wear, and levels of pain experienced. […]

Each structure is given as a SMILES string.

Take `C=C(C)[C@@H]1CCC(C)=C[C@H]1c1c(O)cc(CCCCC)cc1O` [cannabidiol]: the “vaginal delivery from the tampon to treat symptoms associated with menstruation” value is reported as “can be delivered vaginally”.

The values are drawn from patent US20210220184A1, “ABSORBENT TAMPON FOR TREATMENT OF MENSTRUAL SYMPTOMS” (Anne's Day Ltd, priority 2018, published 2021).
